Laboratory results from PubChem BioAssay AID1919001 (Molecular Pharmacology Branch, DTP, NCI, 2023).
Where “and” joins values, the source holds several entries; their conditions need not be identical. Equal entries are not always repeated.

Tested on: 699152-130-R-J1-PDC complex spheroid growth
Assay: Anticancer human tumor 699152-130-R-J1-PDC patient-derived pancreatic carcinoma cell line growth inhibition [AhR]
Settings: for viability, T/C: stronger effect = lower value
Procedure, shortened: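 Agents were dosed in half-log steps down from roughly clinical Cmax, or from 10 microM where Cmax was unknown, alone and with AhR antagonists. Read-out: percent test/control growth of tumor spheroids containing HUVEC and MSC stromal cells.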

[1] = curve of first compound, second compound 0.1 µM
[2] = curve of first compound, second compound 0.316 µM
[3] = curve of first compound, second compound 1 µM
[4] = curve of first compound, second compound 3.16 µM
[5] = curve of first compound, second compound 10 µM
[6] = second compound 0.1 µM, first compound 0.0316 µM
[7] = second compound 0.1 µM, first compound 0.1 µM
[8] = second compound 0.1 µM, first compound 0.316 µM
[9] = second compound 0.1 µM, first compound 1 µM
[10] = second compound 0.1 µM, first compound 3.16 µM
[11] = second compound 0.1 µM, first compound 10 µM
[12] = second compound 0.316 µM, first compound 0.0316 µM
[13] = second compound 0.316 µM, first compound 0.1 µM
[14] = second compound 0.316 µM, first compound 0.316 µM
[15] = second compound 0.316 µM, first compound 1 µM
[16] = second compound 0.316 µM, first compound 3.16 µM
[17] = second compound 0.316 µM, first compound 10 µM
[18] = second compound 1 µM, first compound 0.0316 µM
[19] = second compound 1 µM, first compound 0.1 µM
[20] = second compound 1 µM, first compound 0.316 µM
[21] = second compound 1 µM, first compound 1 µM
[22] = second compound 1 µM, first compound 3.16 µM
[23] = second compound 1 µM, first compound 10 µM
[24] = second compound 3.16 µM, first compound 0.0316 µM
[25] = second compound 3.16 µM, first compound 0.1 µM
[26] = second compound 3.16 µM, first compound 0.316 µM
[27] = second compound 3.16 µM, first compound 1 µM
[28] = second compound 3.16 µM, first compound 3.16 µM
[29] = second compound 3.16 µM, first compound 10 µM
[30] = second compound 10 µM, first compound 0.0316 µM
[31] = second compound 10 µM, first compound 0.1 µM
[32] = second compound 10 µM, first compound 0.316 µM
[33] = second compound 10 µM, first compound 1 µM
[34] = second compound 10 µM, first compound 3.16 µM
[35] = second compound 10 µM, first compound 10 µM
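Further: compound exposure lasted 7 days after spheroids had grown for 3 days.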

CC(C)c1c(-c2ccccc2)nc2c(C#N)c[nH]n2c1=O + Cc1ccccc1N=Nc1ccc(NC(=O)c2ccnn2C)c(C)c1
IC50 [1]: > 10 µM | IC50 [2]: > 10 µM | IC50 [3]: > 10 µM | IC50 [4]: > 10 µM | IC50 [5]: > 10 µM | viability, T/C [6]: 104% | viability, T/C [7]: 81.7% | viability, T/C [8]: 89.5% | viability, T/C [9]: 86.4% | viability, T/C [10]: 79.6% | viability, T/C [11]: 92.1% | viability, T/C [12]: 94.6% | viability, T/C [13]: 86.2% | viability, T/C [14]: 82.6% | viability, T/C [15]: 82.5% | viability, T/C [16]: 84.6% | viability, T/C [17]: 84.6% | viability, T/C [18]: 83.3% | viability, T/C [19]: 93% | viability, T/C [20]: 87.7% | viability, T/C [21]: 99.1% | viability, T/C [22]: 86.7% | viability, T/C [23]: 90.8% | viability, T/C [24]: 96% | viability, T/C [25]: 102% | viability, T/C [26]: 103% | viability, T/C [27]: 82.5% | viability, T/C [28]: 98.8% | viability, T/C [29]: 93.5% | viability, T/C [30]: 99.7% | viability, T/C [31]: 96.6% | viability, T/C [32]: 103% | viability, T/C [33]: 102% | viability, T/C [34]: 106% | viability, T/C [35]: 103%

Nc1ncn(C2CC(O)C(CO)S2)c(=O)n1 (configuration not stated)
viability, T/C (compound 0.000949 µM): 98% and 103% and 102% | viability, T/C (compound 0.003 µM): 105% and 110% and 111% | viability, T/C (compound 0.00949 µM): 97% and 102% and 112% | viability, T/C (compound 0.03 µM): 99.5% and 104% and 110% | viability, T/C (compound 0.0949 µM): 110% and 101% and 95.2% | viability, T/C (compound 0.3 µM): 111% and 96.2% and 102% | IC50 (curve of compound): > 0.3 µM

CCN(c1cc(-c2ccc(CN3CCOCC3)cc2)cc(C(=O)NCc2c(C)cc(C)[nH]c2=O)c1C)C1CCOCC1 + Cc1cncc(-c2nc(NCCc3c[nH]c4ccccc34)c3ncn(C(C)C)c3n2)c1
IC50 [1]: > 3 µM | IC50 [2]: > 3 µM | IC50 [3]: > 3 µM | IC50 [4]: > 3 µM | IC50 [5]: < 0.00949 µM | viability, T/C (second compound 0.1 µM, first compound 0.00949 µM): 101% | viability, T/C (second compound 0.1 µM, first compound 0.03 µM): 110% | viability, T/C (second compound 0.1 µM, first compound 0.0949 µM): 113% | viability, T/C (second compound 0.1 µM, first compound 0.3 µM): 120% | viability, T/C (second compound 0.1 µM, first compound 0.949 µM): 98.2% | viability, T/C (second compound 0.1 µM, first compound 3 µM): 120% | viability, T/C (second compound 0.316 µM, first compound 0.00949 µM): 88.9% | viability, T/C (second compound 0.316 µM, first compound 0.03 µM): 94.4% | viability, T/C (second compound 0.316 µM, first compound 0.0949 µM): 112% | viability, T/C (second compound 0.316 µM, first compound 0.3 µM): 98.9% | viability, T/C (second compound 0.316 µM, first compound 0.949 µM): 103% | viability, T/C (second compound 0.316 µM, first compound 3 µM): 98.7% | viability, T/C (second compound 1 µM, first compound 0.00949 µM): 121% | viability, T/C (second compound 1 µM, first compound 0.03 µM): 116% | viability, T/C (second compound 1 µM, first compound 0.0949 µM): 116% | viability, T/C (second compound 1 µM, first compound 0.3 µM): 131% | viability, T/C (second compound 1 µM, first compound 0.949 µM): 119% | viability, T/C (second compound 1 µM, first compound 3 µM): 112% | viability, T/C (second compound 3.16 µM, first compound 0.00949 µM): 110% | viability, T/C (second compound 3.16 µM, first compound 0.03 µM): 106% | viability, T/C (second compound 3.16 µM, first compound 0.0949 µM): 114% | viability, T/C (second compound 3.16 µM, first compound 0.3 µM): 116% | viability, T/C (second compound 3.16 µM, first compound 0.949 µM): 114% | viability, T/C (second compound 3.16 µM, first compound 3 µM): 112% | viability, T/C (second compound 10 µM, first compound 0.00949 µM): 28.7% | viability, T/C (second compound 10 µM, first compound 0.03 µM): 30.9% | viability, T/C (second compound 10 µM, first compound 0.0949 µM): 28.9% | viability, T/C (second compound 10 µM, first compound 0.3 µM): 23.5% | viability, T/C (second compound 10 µM, first compound 0.949 µM): 22.4% | viability, T/C (second compound 10 µM, first compound 3 µM): 11.3%

Nc1ccn(C2OC(CO)C(O)C2(F)F)c(=O)n1 (configuration not stated) + Cc1cncc(-c2nc(NCCc3c[nH]c4ccccc34)c3ncn(C(C)C)c3n2)c1
IC50 [1]: 1.24 µM | IC50 [2]: 1.3 µM | IC50 [3]: 2.51 µM | IC50 [4]: 0.864 µM | IC50 [5]: < 0.0316 µM | viability, T/C [6]: 76.3% | viability, T/C [7]: 69.2% | viability, T/C [8]: 62.3% | viability, T/C [9]: 49.4% | viability, T/C [10]: 46.6% | viability, T/C [11]: 42.8% | viability, T/C [12]: 81.3% | viability, T/C [13]: 63.6% | viability, T/C [14]: 56.8% | viability, T/C [15]: 56.1% | viability, T/C [16]: 45.3% | viability, T/C [17]: 40.6% | viability, T/C [18]: 72.6% | viability, T/C [19]: 67.9% | viability, T/C [20]: 58.6% | viability, T/C [21]: 53.8% | viability, T/C [22]: 50.5% | viability, T/C [23]: 43.8% | viability, T/C [24]: 74.7% | viability, T/C [25]: 71.1% | viability, T/C [26]: 55.6% | viability, T/C [27]: 50.8% | viability, T/C [28]: 45.4% | viability, T/C [29]: 49.8% | viability, T/C [30]: 47.8% | viability, T/C [31]: 50.9% | viability, T/C [32]: 40.5% | viability, T/C [33]: 46% | viability, T/C [34]: 39.4% | viability, T/C [35]: 35.5%
